Columns and labels:
Type in all cases: in vivo
[1] = system: bench-top tasting panel; experiment: Umami evaluation on salted potato chips (Example 19); details: 1% salted potato chips; for umami strength ranking: 14 panelists
Experimental: (§1) Umami evaluations were done in dry noodle seasoning, chicken broth, retorted chicken broth, cheese sauce and salted potato chip applications. Each application was prepared using MSG, the experimental umami tastant and a blank which contained neither MSG nor the experimental umami tastant. Next, using a bench-top tasting panel (consisting of 7 to 14 panelists), panelists were asked to record the sensory attribute differences between the control (blank), the MSG application and the application containing the experimental umami tastant. These sensory attributes include umami, saltiness, bitterness, off-notes, mouth feel attribute, lingering attribute and flavor profile differences.
One percent salt was added to a standard unsalted potato chip.

[2] = system: bench-top tasting panel; experiment: Umami evaluation in chicken broth; details: Example 1 0.0002% by weight; for umami strength ranking: MSG 0.1%, 11 panelists
Experimental: as §1, with “differences. […] Turmeric was plated on salt and chicken fat and blended well. Next, the remaining ingredients were added and mixed until well blended. A concentration of 2.5% of the resulting mixture in hot water (82° C. (180° F.)) generated the noodle seasoning broth.” for “differences.”

[3] = system: bench-top tasting panel; experiment: Umami evaluation in retorted chicken broth (Example 17); details: Example 1 0.0002% by weight
Experimental: Umami evaluations were done in dry noodle seasoning, chicken broth, retorted chicken broth, cheese sauce and salted potato chip applications. Each application was prepared using MSG, the experimental umami tastant and a blank which contained neither MSG nor the experimental umami tastant. Next, using a bench-top tasting panel (consisting of 7 to 14 panelists), panelists were asked to record the sensory attribute differences between the control (blank), the MSG application and the application containing the experimental umami tastant. These sensory attributes include umami, saltiness, bitterness, off-notes, mouth feel attribute, lingering attribute and flavor profile differences. The chicken broth generated in Example 16 was transferred to a can and sealed. Prior to sealing one batch was treated with the compound of Example 1 (0.0002% by weight) and the other batch was canned without the ingredient generating a blank control sample. After sealing the cans, they were heated to 121° C. (250° F.) (under pressure) for 25 minutes, cooled to room temperature and then stored in the refrigerator for two weeks. Prior to tasting, the cans were opened and reheated to 65.5° C. (150° F.).

[4] = system: panel of trained tasters; experiment: Taste evaluation in water
Experimental: A one percent cut of each compound of Examples 1-13 was prepared first. The hydrochloride salts were cut directly into water, while the free base examples were cut into ethanol. Next, 100 ml of a 1 ppm, 10 ppm and 20 ppm solution were prepared. The 1 ppm standards were prepared by addition of 0.0126 ml (cut in ethanol) or 0.01 ml (cut in water) to an amber bottle followed by dilution to 100 g total sample weight using water. The 10 and 20 ppm solutions were prepared similarly, but using 0.126 ml ethanol/0.1 ml water or 0.252 ml ethanol/0.2 ml water of the 1% cuts respectively. Next, the samples were evaluated by a panel of trained tasters.

[5] = system: bench-top tasting panel; experiment: Umami evaluation in noodle seasoning broth; details: Example 1 0.0001% by weight; for umami strength ranking: MSG 0.1%, 11 panelists
Experimental: as §1, with “differences. [table] Turmeric was plated on salt and palm fat and blended well. Next, the remaining ingredients were added and mixed until well blended. A concentration of 1.5% of the resulting mixture in hot water generated the noodle seasoning broth. The following three samples were tasted and compared. [table]” for “differences.”

[6] = system: bench-top tasting panel; experiment: Umami evaluation in cheese sauce; details: Example 1 0.00025% by weight; for umami strength ranking: MSG 0.1%, 14 panelists
Experimental: as §1, with “differences. […] Annatto was plated on a mixture of salt, citric acid and lactic acid and blended well. Next, the remaining ingredients were added and mixed until well blended.” for “differences.”

[7] = system: bench-top tasting panel; experiment: Bain marie (hot water bath) test with chicken broth; details: hot water bath 150° F. for 4 hours, MSG 0.20%, Example 3 3 ppm, Example 13 2 ppm (table), Example 10 3 ppm, Example 9 2 ppm, 7 panelists
Experimental: as §1
Chicken broth was prepared as previously described in example 15. Compounds from Examples 3, 9, 10 and 13 were added to the chicken broth in the concentrations described below and placed in a hot water bath (150° F.) for 4 hours prior to taste evaluation.

[8] = system: bench-top tasting panel; experiment: Umami evaluation in retorted chicken broth (Example 20); details: MSG 0.20%, Example 3 4 ppm, Example 13 3 ppm, Example 10 4 ppm, Example 9 3 ppm, 9 panelists
Experimental: as §1
The procedure for the preparation of the retorted chicken broth is the same as in example 16. Compounds from Examples 3, 9, 10 and 13 were spiked individually into the chicken broth generating six samples, as described below.

[9] = system: bench-top tasting panel; experiment: Umami evaluation on salted potato chips (Example 22); details: 1% salted potato chips; MSG 0.2%, Example 3 10 ppm, Example 13 10 ppm, Example 10 6 ppm, Example 9 10 ppm; 9 panelists
Experimental: as §1
The potato chips were prepared as previously described in example 19 and spiked with compounds from Examples 3, 9, 10 and 13 as described below.

[10] = MSG 0.2%, Example 1 3 ppm (0.0003% by weight)

c1ccc(SCCc2ccccn2)cc1 [Example 1, 2-(2-(PHENYLTHIO)ETHYL)PYRIDINE]
umami strength ranking ([1]; Example 1 1 ppm (0.0001% by weight)): MSG>3 ppm Example 1>1 ppm Example 1>Blank Salted Chips | attribute noted by some panelists ([1]; Example 1 containing samples (1 ppm and 3 ppm)): peppery attribute | Number of panelists who noted green pepper offnote ([1]; Example 1 samples, of 14 panelists): 2 | umami strength ranking [1, 10]: MSG>3 ppm Example 1>1 ppm Example 1>Blank Salted Chips | attribute noted by some panelists [2]: green pepper/chili off-note attribute | Number of panelists who noted green pepper offnote ([2]; of 11 panelists): 3 | umami strength ranking [2]: MSG>Example 1>Blank Chicken Broth | umami versus control ([3]; retorted chicken broth (121° C., 25 minutes, stored two weeks), 10 panelists): more umami than the control | off-notes ([3]; retorted chicken broth): pepper off-notes | Number of panelists who noted green pepper offnote ([3]; retorted chicken broth, of 10 panelists): 4 | aroma ([4]; 1 ppm in water): green | taste ([4]; 1 ppm in water): weak to moderate umami | aroma ([4]; 10 ppm in water): green | taste ([4]; 10 ppm in water): moderate umami, very weak: bitter, very weak | aroma ([4]; 20 ppm in water): Green, tomato, bell | taste ([4]; 20 ppm in water): strong umami, very weak bitter, weak metallic | attribute noted by some panelists [5]: green pepper attribute | Number of panelists who noted green pepper offnote ([5]; of 11 panelists): 2 | umami strength ranking [5]: MSG>Example 1>Blank Noodle Seasoning | attribute noted by some panelists [6]: green pepper attribute | Number of panelists who noted green pepper offnote ([6]; of 14 panelists): 4 | umami strength ranking [6]: MSG>Example 1>Blank Cheese Sauce

N[C@@H](CCC(=O)O)C(=O)[O-].[Na+] [MSG, monosodium glutamate, reference compound]
umami strength ranking [1, 10]: MSG>3 ppm Example 1>1 ppm Example 1>Blank Salted Chips | umami strength ranking [7]: MSG>2 ppm example 9>3 ppm Example 10=4 ppm Example 13>Blank chicken broth>3 ppm Example 3 | umami strength ranking [2]: MSG>Example 1>Blank Chicken Broth | umami strength ranking [8]: MSG>3 ppm example 9>3 ppm Example 13>4 ppm Example 3>Blank retorted chicken broth>4 ppm Example 10 | umami strength ranking [9]: 10 ppm Example 3>10 ppm Example 9>MSG>10 ppm Example 13>blank>6 ppm Example 10 | umami strength ranking [5]: MSG>Example 1>Blank Noodle Seasoning | umami strength ranking [6]: MSG>Example 1>Blank Cheese Sauce

— patent US10178875B2, “Methods of modifying or imparting taste using organic compounds” (Givaudan, S.A., priority 2013, dated 2019)
